Results reported in patent US12358886B2, “Heterocyclic compounds for use in the treatment of cancer” (Artios Pharma Limited, priority 2019, dated 2025).

target: Polθ protein (amino acids 2-2590) (Homo sapiens, UniProt O75417); assay: Polθ full length enzyme potency assay (PicoGreen); settings: Polθ IC50 (nM), full length N-His, C-term FLAG tagged Polθ, PicoGreen fluorescence, 12 point concentration response
Sequence (O75417 2-2590): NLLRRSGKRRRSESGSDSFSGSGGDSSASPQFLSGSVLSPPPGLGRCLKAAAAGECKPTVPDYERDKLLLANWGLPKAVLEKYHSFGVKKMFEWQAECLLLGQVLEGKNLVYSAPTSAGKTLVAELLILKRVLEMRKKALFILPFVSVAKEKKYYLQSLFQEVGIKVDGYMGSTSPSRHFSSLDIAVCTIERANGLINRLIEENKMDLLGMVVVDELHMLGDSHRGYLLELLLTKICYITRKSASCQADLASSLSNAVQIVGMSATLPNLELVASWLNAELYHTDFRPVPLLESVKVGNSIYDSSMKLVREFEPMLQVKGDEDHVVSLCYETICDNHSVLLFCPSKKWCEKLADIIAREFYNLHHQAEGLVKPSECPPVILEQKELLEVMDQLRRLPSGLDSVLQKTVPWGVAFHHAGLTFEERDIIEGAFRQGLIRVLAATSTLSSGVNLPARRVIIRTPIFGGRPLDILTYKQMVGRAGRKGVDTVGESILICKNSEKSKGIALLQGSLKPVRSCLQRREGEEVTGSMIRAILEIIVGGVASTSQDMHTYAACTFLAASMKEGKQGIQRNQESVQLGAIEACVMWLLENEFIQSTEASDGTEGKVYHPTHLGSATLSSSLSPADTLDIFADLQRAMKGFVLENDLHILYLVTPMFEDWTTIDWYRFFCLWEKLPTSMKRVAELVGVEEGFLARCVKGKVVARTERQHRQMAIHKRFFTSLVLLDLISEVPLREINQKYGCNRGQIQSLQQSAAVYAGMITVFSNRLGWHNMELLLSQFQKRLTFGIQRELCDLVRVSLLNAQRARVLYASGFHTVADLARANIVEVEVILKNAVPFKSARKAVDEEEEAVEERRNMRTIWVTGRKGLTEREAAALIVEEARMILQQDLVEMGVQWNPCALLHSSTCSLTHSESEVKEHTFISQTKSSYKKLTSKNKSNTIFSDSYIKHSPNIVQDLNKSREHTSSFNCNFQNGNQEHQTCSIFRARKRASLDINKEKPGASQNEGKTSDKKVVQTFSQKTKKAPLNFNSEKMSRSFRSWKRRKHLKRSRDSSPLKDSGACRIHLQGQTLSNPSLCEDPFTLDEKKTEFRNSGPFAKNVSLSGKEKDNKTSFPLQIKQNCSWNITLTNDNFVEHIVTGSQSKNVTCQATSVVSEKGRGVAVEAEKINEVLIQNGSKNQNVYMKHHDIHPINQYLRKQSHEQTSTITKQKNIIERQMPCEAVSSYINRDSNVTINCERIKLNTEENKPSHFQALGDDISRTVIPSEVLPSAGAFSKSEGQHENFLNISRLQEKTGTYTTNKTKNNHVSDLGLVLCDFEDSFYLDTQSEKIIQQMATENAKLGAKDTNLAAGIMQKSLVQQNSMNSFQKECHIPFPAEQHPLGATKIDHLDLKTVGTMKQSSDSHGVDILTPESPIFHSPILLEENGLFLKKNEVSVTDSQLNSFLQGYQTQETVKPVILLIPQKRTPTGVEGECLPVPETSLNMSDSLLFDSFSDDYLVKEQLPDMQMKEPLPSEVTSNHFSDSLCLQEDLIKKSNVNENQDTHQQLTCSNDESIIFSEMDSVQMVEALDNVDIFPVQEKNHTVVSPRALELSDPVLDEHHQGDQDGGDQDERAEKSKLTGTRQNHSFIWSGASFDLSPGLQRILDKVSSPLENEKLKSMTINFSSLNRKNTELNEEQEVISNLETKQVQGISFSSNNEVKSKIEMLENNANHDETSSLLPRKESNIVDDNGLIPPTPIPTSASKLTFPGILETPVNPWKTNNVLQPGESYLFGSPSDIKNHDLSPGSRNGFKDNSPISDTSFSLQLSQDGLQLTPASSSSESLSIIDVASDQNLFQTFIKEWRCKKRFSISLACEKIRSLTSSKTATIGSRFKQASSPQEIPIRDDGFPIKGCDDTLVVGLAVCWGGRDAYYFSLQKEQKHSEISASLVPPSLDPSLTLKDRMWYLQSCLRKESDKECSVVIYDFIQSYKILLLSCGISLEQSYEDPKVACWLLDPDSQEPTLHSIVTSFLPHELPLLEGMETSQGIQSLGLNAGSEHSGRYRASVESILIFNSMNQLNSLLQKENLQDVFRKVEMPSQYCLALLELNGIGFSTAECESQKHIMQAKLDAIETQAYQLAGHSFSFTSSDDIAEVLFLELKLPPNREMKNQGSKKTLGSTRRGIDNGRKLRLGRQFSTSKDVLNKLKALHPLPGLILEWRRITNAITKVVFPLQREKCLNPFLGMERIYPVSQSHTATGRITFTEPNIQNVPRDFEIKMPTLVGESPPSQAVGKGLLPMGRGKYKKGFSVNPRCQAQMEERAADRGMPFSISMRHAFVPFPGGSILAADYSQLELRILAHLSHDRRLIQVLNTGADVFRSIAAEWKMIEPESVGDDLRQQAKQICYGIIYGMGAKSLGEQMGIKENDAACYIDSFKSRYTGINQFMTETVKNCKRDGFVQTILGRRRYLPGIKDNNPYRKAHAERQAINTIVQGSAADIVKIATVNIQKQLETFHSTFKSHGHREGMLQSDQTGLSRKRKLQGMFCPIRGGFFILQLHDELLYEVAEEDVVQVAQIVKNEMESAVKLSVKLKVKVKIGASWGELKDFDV

Q: Which IC50 does the source give for Cc1cc(C(F)(F)F)cc(N2C(=O)N(CC3CNC3)C[C@H]2C(=O)N(C)c2ccc(F)c(Cl)c2F)n1 [Example 188, (S)-1-(Azetidin-3-ylmethyl)-N-(3-chloro-2,4-difluorophenyl)-N-methyl-3-(6-methyl-4-(trifluoromethyl)pyridin-2-yl)-2-oxoimidazolidine-4-carboxamide] here?
A: 18 nM

Q: Which IC50 does the source give for Cc1cc(C(F)(F)F)cc(N2C(=O)NC[C@H]2C(=O)N(C)c2ccc3c(F)c[nH]c3n2)n1 [Example 239, (S)—N-(3-Fluoro-1H-pyrrolo[2,3-b]pyridin-6-yl)-N-methyl-3-(6-methyl-4-(trifluoromethyl)pyridin-2-yl)-2-oxoimidazolidine-4-carboxamide] here?
A: 6 nM

Q: Which IC50 does the source give for Cc1cc(C(F)(F)F)cc(N2C(=O)N(CC(O)CO)C[C@H]2C(=O)N(C)c2ccc(F)c(Cl)c2F)n1 (stereo partly drawn) [Example 226, (4S)—N-(3-Chloro-2,4-difluorophenyl)-1-(2,3-dihydroxypropyl)-N-methyl-3-(6-methyl-4-(trifluoromethyl)pyridin-2-yl)-2-oxoimidazolidine-4-carboxamide] here?
A: 19 nM

Q: For Cc1cc(C(F)(F)F)cc(N2C(=O)N(CCCN3CCNCC3)C[C@H]2C(=O)N(C)c2ccc(F)c(Cl)c2F)n1 [Example 220, (S)—N-(3-Chloro-2,4-difluorophenyl)-N-methyl-3-(6-methyl-4-(trifluoromethyl)pyridin-2-yl)-2-oxo-1-(3-(piperazin-1-yl)propyl)imidazolidine-4-carboxamide], which IC50 is on record?
A: 11 nM

Q: With Cc1cc(C(F)(F)F)cc(N2C(=O)N(CCOS(N)(=O)=O)C[C@H]2C(=O)N(C)c2ccc(F)c(Cl)c2F)n1 [Example 227, (S)-2-(4-((3-Chloro-2,4-difluorophenyl)(methyl)carbamoyl)-3-(6-methyl-4-(trifluoromethyl)pyridin-2-yl)-2-oxoimidazolidin-1-yll sulfamate] as the compound, how does the IC50 read?
A: 6 nM

Q: Which IC50 does the source give for Cc1cccc(N(C(=O)[C@@H]2CCCN2c2nc(C)cc(C(F)(F)F)c2C#N)C(C)C)c1 [Example 2, (S)-1-(3-Cyano-6-methyl-4-(trifluoromethyl)pyridin-2-yl)-N-isopropyl-N-(m-tolyl)pyrrolidine-2-carboxamide] here?
A: 9 nM

Q: Which IC50 does the source give for Cc1cc(C(F)(F)F)cc(N2C(=O)OC[C@H]2C(=O)N(C)c2ccc(C3CC3)c(Cl)c2)n1 [Example 173, (S)—N-(3-Chloro-4-cyclopropylphenyl)-N-methyl-3-(6-methyl-4-(trifluoromethyl)pyridin-2-yl)-2-oxooxazolidine-4-carboxamide] here?
A: 13 nM

Q: With Cc1cc(C(F)(F)F)cc(N2C(=O)[C@@H](CN(C)C)C[C@@H]2C(=O)N(C)c2ccc(F)c(Cl)c2)n1 (stereo in doubt) [Example 79, (2R,4R)—N-(3-Chloro-4-fluorophenyl)-4-((dimethylamino)methyl)-N-methyl-1-(6-methyl-4-(trifluoromethyl)pyridin-2-yl)-5-oxopyrrolidine-2-carboxamide] as the compound, how does the IC50 read?
A: 90 nM

Q: Which IC50 does the source give for Cc1cc(C(F)(F)F)cc(N2C(=O)[C@H](O)[C@H](O)[C@H]2C(=O)N(C)c2ccc(F)c(Cl)c2)n1 [Example 72, (2S,3R,4R)—N-(3-Chloro-4-fluorophenyl)-3,4-dihydroxy-N-methyl-1-(6-methyl-4-(trifluoromethyl)pyridin-2-yl)-5-oxopyrrolidine-2-carboxamide] here?
A: 32 nM

Q: With Cc1cc(C(F)(F)F)cc(N2C(=O)N(CC3(O)CCNC3)C[C@H]2C(=O)N(C)c2ccc(F)c(Cl)c2F)n1 (stereo partly drawn) [Example 222, (4S)—N-(3-Chloro-2,4-difluorophenyl)-1-((3-hydroxypyrrolidin-3-yl)methyl)-N-methyl-3-(6-methyl-4-(trifluoromethyl)pyridin-2-yl)-2-oxoimidazolidine-4-carboxamide] as the compound, how does the IC50 read?
A: 9 nM

Q: For Cc1cc(C(F)(F)F)cc(N2C(=O)OC[C@H]2C(=O)N(C)c2ccc(Cl)c(F)c2F)n1 [Example 101, (S)-N-(4-Chloro-2,3-difluorophenyl)-N-methyl-3-(6-methyl-4-(trifluoromethyl)pyridin-2-yl)-2-oxooxazolidine-4-carboxamide], which IC50 is on record?
A: 23 nM

Q: For Cc1cc(C(F)(F)F)c(C#N)c(N2C[C@@H](O)C[C@H]2C(=O)N(C)c2cc(F)cc(F)c2)n1 [Example 17, (2S,4S)-1-(3-Cyano-6-methyl-4-(trifluoromethyl)pyridin-2-yl)-N-(3,5-difluorophenyl)-4-hydroxy-N-methylpyrrolidine-2-carboxamide], which IC50 is on record?
A: 97 nM

Q: With Cc1cc(C(F)(F)F)c(C#N)c(N2[C@H](C)CC[C@H]2C(=O)N(C)c2ccc(F)c(Cl)c2)n1 [Example 241, (2S,5R)—N-(3-Chloro-4-fluorophenyl)-1-(3-cyano-6-methyl-4-(trifluoromethyl)pyridin-2-yl)-N,5-dimethylpyrrolidine-2-carboxamide] as the compound, how does the IC50 read?
A: 240 nM

Q: With Cc1cc(C(F)(F)F)cc(N2C(=O)OC[C@H]2C(=O)N(C)c2ccc(F)c(C)c2F)n1 [Example 100, (S)-N-(2,4-Difluoro-3-methylphenyl)-N-methyl-3-(6-methyl-4-(trifluoromethyl)pyridin-2-yl)-2-oxooxazolidine-4-carboxamide] as the compound, how does the IC50 read?
A: 4 nM

Q: With Cc1cc(C(F)(F)F)cc(N2C(=O)OC[C@H]2C(=O)N(C)c2ccc3cccnc3c2)n1 [Example 178, (S)—N-Methyl-3-(6-methyl-4-(trifluoromethyl)pyridin-2-yl)-2-oxo-N-(quinolin-7-yl)oxazolidine-4-carboxamide] as the compound, how does the IC50 read?
A: 833 nM

Q: With Cc1cc(C(F)(F)F)cc(N2C(=O)N(CCN3CCCC3CO)C[C@H]2C(=O)N(C)c2ccc(F)c(Cl)c2)n1 (single isomer, unassigned; isomer 1) [Example 198] as the compound, how does the IC50 read?
A: 28 nM

Q: How did the IC50 turn out when CCN(C(=O)[C@@H]1C[C@H](N[C@@H]2COCC[C@H]2O)CN1c1cc(C(F)(F)F)cc(C)n1)c1ccc(F)c(F)c1 [Example 132, (2S,4S)-N-(3,4-Difluorophenyl)-N-ethyl-4-(((3R,4R)-4-hydroxytetrahydro-2H-pyran-3-yl)amino)-1-(6-methyl-4-(trifluoromethyl)pyridin-2-yl)pyrrolidine-2-carboxamide] was run?
A: 156 nM

Q: CCN(C(=O)[C@@H]1C[C@H](N[C@H]2CCC[C@H]2O)CN1c1cc(C(F)(F)F)cc(C)n1)c1ccc(F)c(F)c1 [Example 134, (2S,4S)-N-(3,4-Difluorophenyl)-N-ethyl-4-(((1S,2R)-2-hydroxycyclopentyl)amino)-1-(6-methyl-4-(trifluoromethyl)pyridin-2-yl)pyrrolidine-2-carboxamide] was tested. Which IC50 did it give?
A: 124 nM

Q: How did the IC50 turn out when Cc1cc(C(F)(F)F)cc(N2C(=O)[C@@H](O)[C@@H](O)[C@H]2C(=O)N(C)c2ccc(F)c(Cl)c2)n1 [Example 65, (2S,3S,4S)—N-(3-Chloro-4-fluorophenyl)-3,4-dihydroxy-N-methyl-1-(6-methyl-4-(trifluoromethyl)pyridin-2-yl)-5-oxopyrrolidine-2-carboxamide] was run?
A: 8 nM

Q: How did the IC50 turn out when Cc1cc(C(F)(F)F)cc(N2C(=O)OC[C@H]2C(=O)N(C)c2ccc(Cl)c(C)c2)n1 [Example 84, (S)—N-(4-Chloro-3-methylphenyl)-N-methyl-3-(6-methyl-4-(trifluoromethyl)pyridin-2-yl)-2-oxooxazolidine-4-carboxamide] was run?
A: 6 nM

Q: Cc1cccc(N(C)C(=O)[C@@H]2CCC(=O)N2c2cc(C(F)(F)F)cc(C)n2)c1 [Example 59, (S)—N-Methyl-1-(6-methyl-4-(trifluoromethyl)pyridin-2-yl)-5-oxo-N-(m-tolyl)pyrrolidine-2-carboxamide] was tested. Which IC50 did it give?
A: 7 nM

Q: Which IC50 does the source give for Cc1cc(C(C)(C)C)cc(N2C(=O)OC[C@H]2C(=O)N(C)c2ccc(F)c(Cl)c2)n1 [Example 123, (S)-3-(4-(tert-Butyl)-6-methylpyridin-2-yl)-N-(3-chloro-4-fluorophenyl)-N-methyl-2-oxooxazolidine-4-carboxamide] here?
A: 36 nM

Q: Cc1cc(C(F)(F)F)cc(N2C(=O)OC[C@H]2C(=O)N(C)c2ccc3cn[nH]c3c2)n1 [Example 174, (S)—N-(1H-Indazol-6-yl)-N-methyl-3-(6-methyl-4-(trifluoromethyl)pyridin-2-yl)-2-oxooxazolidine-4-carboxamide] was tested. Which IC50 did it give?
A: 158 nM

Q: For CC(=O)N(C)C1CCN(CCN2C[C@@H](C(=O)N(C)c3ccc(F)c(Cl)c3F)N(c3cc(C(F)(F)F)cc(C)n3)C2=O)C1 (stereo partly drawn) [Example 207, (4S)-N-(3-Chloro-2,4-difluoro-phenyl)-N-methyl-3-(6-methyl-4-(trifluoromethyl)pyridin-2-yl)-1-(2-(3-(N-methylacetamido)-pyrrolidin-1-yl)ethyl)-2-oxoimidazolidine-4-carboxamide], which IC50 is on record?
A: 7 nM

Q: Which IC50 does the source give for Cc1cc(C(F)(F)F)c(C#N)c(N2CCC[C@H]2C(=O)N(C)c2ccc3ccn(C)c3n2)n1 [Example 243, (S)-1-(3-Cyano-6-methyl-4-(trifluoromethyl)pyridin-2-yl)-N-methyl-N-(1-methyl-1H-pyrrolo[2,3-b]pyridin-6-yl)pyrrolidine-2-carboxamide] here?
A: 39 nM

Q: With COc1cc(N(C)C(=O)[C@@H]2COC(=O)N2c2cc(C(F)(F)F)cc(C)n2)ccc1C [Example 92, (S)-N-(3-Methoxy-4-methylphenyl)-N-methyl-3-(6-methyl-4-(trifluoromethyl)pyridin-2-yl)-2-oxooxazolidine-4-carboxamide] as the compound, how does the IC50 read?
A: 18 nM

Q: For CCN(C(=O)[C@@H]1C[C@H](N2CCOCC2)C(=O)N1c1cc(C(F)(F)F)cc(C)n1)c1ccc(F)c(Cl)c1 [Example 63, (2S,4S)—N-(3-Chloro-4-fluorophenyl)-N-ethyl-1-(6-methyl-4-(trifluoro-methyl)pyridin-2-yl)-4-morpholino-5-oxopyrrolidine-2-carboxamide], which IC50 is on record?
A: 410 nM

same assay, conditions: read-out: Polθ IC50; full length N-His, C-term FLAG tagged Polθ, PicoGreen fluorescence, 12 point concentration response

Q: CCN(C(=O)[C@@H]1COC(=O)N1c1cc(C(F)(F)F)cc(C)n1)c1ccc(F)c(Cl)c1 [Example 103, (S)-N-(3-Chloro-4-fluorophenyl)-N-ethyl-3-(6-methyl-4-(trifluoromethyl)-pyridin-2-yl)-2-oxooxazolidine-4-carboxamide] was tested. Which IC50 did it give?
A: 54 nM

Q: With Cc1cc(C(F)(F)F)cc(N2C(=O)OC[C@H]2C(=O)N(C)c2cc(Cl)c(F)cc2F)n1 [Example 98, (S)-N-(5-Chloro-2,4-difluorophenyl)-N-methyl-3-(6-methyl-4-(trifluoromethyl)pyridin-2-yl)-2-oxooxazolidine-4-carboxamide] as the compound, how does the IC50 read?
A: 32 nM
